This note sets out measurements from ChEMBL document CHEMBL1155839, “Exploring 9-benzyl purines as inhibitors of glutamate racemase (MurI) in Gram-positive bacteria” (Bioorg Med Chem Lett, 2008).

≈ marks a conversion by molar mass, not a printed value. Some results are limits rather than exact numbers.

One data set concerns Enterococcus faecalis. As to the kind of experiment: Antibacterial activity against Enterococcus faecalis. The data set is classed as functional.
Data set [1] in a line: Inhibition of Enterococcus faecium MurI.
For another data set, the target named is T1, Glutamate racemase (Enterococcus faecalis (strain ATCC 700802 / V583), UniProt Q836J0).
T1 sequence (Q836J0 whole entry): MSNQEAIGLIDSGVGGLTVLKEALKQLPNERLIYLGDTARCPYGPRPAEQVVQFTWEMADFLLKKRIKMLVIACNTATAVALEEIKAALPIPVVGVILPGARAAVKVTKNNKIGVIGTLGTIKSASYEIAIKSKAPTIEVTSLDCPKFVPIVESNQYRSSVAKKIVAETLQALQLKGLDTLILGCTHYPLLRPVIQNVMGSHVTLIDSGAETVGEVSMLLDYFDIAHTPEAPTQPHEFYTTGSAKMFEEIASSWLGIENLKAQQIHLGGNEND
In words: Inhibition of Enterococcus faecalis MurI.

In the next data set the test system is Enterococcus faecium. In words: Antibacterial activity against Enterococcus faecium. The data set is classed as functional.
A short description of data set [2]: Inhibition of Staphylococcus aureus MurI.
Data set [3] can be described thus: Solubility by nephelometry. Type of data set: physicochemical.
Another data set has as its system Staphylococcus aureus. In words: Antibacterial activity against Staphylococcus aureus. The data set is classed as functional.

Turning to `CCCCSc1nc(N)c2nnn(Cc3c(F)cccc3F)c2n1`, the MIC against Enterococcus faecalis, against Enterococcus faecium and against Staphylococcus aureus was 16 µg/mL (≈ 45.7 µM) each time. For the same molecule, the concentration for half-maximal inhibition (IC50) (usually the concentration that gives 50% inhibition) in data set [1] is 6.2 µM; against Glutamate racemase, 4.3 µM; in data set [2] it was above 400 µM. Besides, the kinetic solubility – broadly, the concentration staying in solution when a stock, usually in DMSO, is diluted into the medium – in data set [3] came to 50 µM (≈ 17.5 µg/mL).
With `CCC(Oc1nc(N)c2ncn(Cc3c(F)ccc(C)c3F)c2n1)C(F)(F)C(F)(F)F` (stereo not drawn), the MIC in the data set with Enterococcus faecalis, in the data set on Enterococcus faecium and against Staphylococcus aureus was 16 µg/mL (≈ 35.4 µM) each time. In addition, the figures for the half-inhibitory concentration (IC50) (in data set [1]; against Glutamate racemase; in data set [2]) were 4.4 µM, 4.3 µM and above 400 µM, respectively. This molecule gave a solubility (kinetic) in data set [3] of 25 µM (≈ 11.3 µg/mL).
On to `CCCCOc1nc(NCc2cccnc2)c2ncn(Cc3c(F)ccc(Cl)c3F)c2n1`, for which the minimal inhibitory concentration (MIC) against Enterococcus faecalis, in the data set with Enterococcus faecium and in the data set with Staphylococcus aureus was 16 µg/mL (≈ 34.9 µM) throughout. Moreover, the IC50 in data set [1] is 2.7 µM; on Glutamate racemase, 2 µM; in data set [2] it was above 400 µM. The kinetic solubility in data set [3] turned out to be 18 µM (≈ 8.26 µg/mL).
Take `CCCCSc1nc(N)c2ncn(Cc3c(F)ccc(C)c3F)c2n1`: the MIC against Enterococcus faecalis, against Enterococcus faecium and in the data set with Staphylococcus aureus was 16 µg/mL (≈ 44 µM) throughout. Moreover, the values for the half-inhibitory concentration (IC50) (in data set [1]; against Glutamate racemase; in data set [2]) were 6.5 µM, 5.4 µM and above 400 µM, respectively. The molecule also displayed a kinetic solubility in data set [3] of 25 µM (≈ 9.09 µg/mL).
Take `CCCCSc1ncc2ncn(Cc3c(F)ccc(Cl)c3F)c2n1`: the minimal inhibitory concentration (MIC) in the data set on Enterococcus faecalis, with Enterococcus faecium and with Staphylococcus aureus was 16 µg/mL (≈ 43.4 µM) each time. The half-maximal inhibitory concentration (IC50) in data set [1] is 1.8 µM; against Glutamate racemase, 1 µM; in data set [2], above 400 µM. For the same molecule, in data set [3], the kinetic solubility worked out at 50 µM (≈ 18.4 µg/mL).
In the case of `CC(=O)NC(C)Oc1nc(N)c2ncn(Cc3c(F)ccc(C)c3F)c2n1` (stereo not drawn), the minimal inhibitory concentration (MIC) in the data set on Enterococcus faecalis, with Enterococcus faecium and in the data set with Staphylococcus aureus was 16 µg/mL (≈ 42.5 µM) in each case. The IC50 is above 400 µM in data set [1], 167 µM on Glutamate racemase and above 400 µM in data set [2]. The molecule also showed a solubility (kinetic) in data set [3] of 100 µM (≈ 37.6 µg/mL).
With `CCCCNc1nc(N)c2ncn(Cc3c(F)cccc3F)c2n1`, the MIC with Enterococcus faecalis, against Enterococcus faecium and in the data set on Staphylococcus aureus was 16 µg/mL (≈ 48.1 µM) each time. Besides, the half-maximal inhibitory concentration (IC50) in data set [1] is 42.5 µM; against Glutamate racemase, 26.1 µM; in data set [2] it was above 400 µM. Further, the solubility (kinetic) in data set [3] came out at 100 µM (≈ 33.2 µg/mL).
With `CCCCSc1nc(N)c2ncn(Cc3c(F)cccc3F)c2n1`, the minimal inhibitory concentration (MIC) with Enterococcus faecalis, in the data set on Enterococcus faecium and in the data set with Staphylococcus aureus was 16 µg/mL (≈ 45.8 µM) throughout. Moreover, the values for the IC50 (in data set [1]; against Glutamate racemase; in data set [2]) were 6 µM, 4.1 µM and above 400 µM, respectively. For the same molecule, in data set [3], the solubility (kinetic) worked out at 50 µM (≈ 17.5 µg/mL).
Consider `CCCCOc1nc(N)c2ncn(Cc3c(F)ccc(C)c3F)c2n1`, for which the minimal inhibitory concentration (MIC) in the data set on Enterococcus faecalis, with Enterococcus faecium and against Staphylococcus aureus was 16 µg/mL (≈ 46.1 µM) throughout. Besides, the results for the IC50 (in data set [1]; at Glutamate racemase; in data set [2]) were 27 µM, 9.8 µM and above 400 µM, respectively. The kinetic solubility in data set [3] came out at 50 µM (≈ 17.4 µg/mL).
As for `CCCCOc1nc(NCc2ccccc2)c2ncn(Cc3c(F)ccc(C)c3F)c2n1`, the MIC against Enterococcus faecalis, with Enterococcus faecium and in the data set on Staphylococcus aureus was 16 µg/mL (≈ 36.6 µM) in each case. The half-inhibitory concentration (IC50) (in data set [1]; on Glutamate racemase; in data set [2]) was above 400 µM throughout. This molecule returned a solubility (kinetic) in data set [3] of 3.1 µM (≈ 1.36 µg/mL).
Turning to `CCCCOc1nc(NC)c2ncn(Cc3c(F)cccc3F)c2n1`, the MIC against Enterococcus faecalis, against Enterococcus faecium and against Staphylococcus aureus was 16 µg/mL (≈ 46.1 µM) each time. The IC50 in data set [1] was 13.9 µM; on Glutamate racemase, 5.5 µM; in data set [2] it was above 400 µM. The molecule further returned a solubility (kinetic) in data set [3] of 100 µM (≈ 34.7 µg/mL).
As to `CCCCSc1nc(N)c2ncn(Cc3c(F)ccc(Cl)c3F)c2n1`, the MIC in the data set with Enterococcus faecalis, against Enterococcus faecium and against Staphylococcus aureus was 16 µg/mL (≈ 41.7 µM) throughout. Besides, the half-maximal inhibitory concentration (IC50) in data set [1] was 2.6 µM; on Glutamate racemase, 2.2 µM; in data set [2], above 400 µM. In data set [3], the solubility (kinetic) came out at 25 µM (≈ 9.6 µg/mL).
As for `CCCCSc1nc(N)c2ncn(Cc3cccc([N+](=O)[O-])c3)c2n1`, the MIC in the data set on Enterococcus faecalis, against Enterococcus faecium and against Staphylococcus aureus was 16 µg/mL (≈ 44.6 µM) each time. For the same molecule, the results for the IC50 (in data set [1]; against Glutamate racemase; in data set [2]) were 17.7 µM, 9.4 µM and above 400 µM, respectively. In data set [3], the solubility (kinetic) is 42 µM (≈ 15.1 µg/mL).
As for `CCCCOc1nc(NCCN2CCOCC2)c2ncn(Cc3c(F)cccc3F)c2n1`, the MIC in the data set with Enterococcus faecalis, in the data set on Enterococcus faecium and against Staphylococcus aureus was 16 µg/mL (≈ 35.8 µM) each time. Further, the IC50 in data set [1] was 5.5 µM; in data set [2], above 400 µM. The same molecule had a solubility (kinetic) in data set [3] of 200 µM (≈ 89.3 µg/mL).
On to `CCCCSc1nc(N)c2ncn(Cc3cc([N+](=O)[O-])ccc3OC)c2n1`, for which the MIC against Enterococcus faecalis, in the data set with Enterococcus faecium and against Staphylococcus aureus was 16 µg/mL (≈ 41.2 µM) in each case. For the same molecule, the figures for the half-inhibitory concentration (IC50) (in data set [1]; on Glutamate racemase; in data set [2]) were 2.5 µM, 1.4 µM and above 400 µM, respectively. The same molecule returned a kinetic solubility in data set [3] of 25 µM (≈ 9.71 µg/mL).
Consider `CCCCSc1nc2c(ncn2Cc2c(F)ccc(C)c2F)c(=O)[nH]1`, for which the MIC against Enterococcus faecalis, against Enterococcus faecium and in the data set with Staphylococcus aureus was 16 µg/mL (≈ 43.9 µM) throughout. The IC50 in data set [1] was 3.75 µM; against Glutamate racemase it was 11.5 µM; in data set [2] it was above 400 µM. In data set [3], the kinetic solubility is 100 µM (≈ 36.4 µg/mL).
Consider `CCCCOc1nc(N)c2[nH]c(=O)n(Cc3c(F)cccc3F)c2n1`, for which the MIC in the data set with Enterococcus faecalis, against Enterococcus faecium and against Staphylococcus aureus was 16 µg/mL (≈ 45.8 µM) throughout. Moreover, the concentration for half-maximal inhibition (IC50) is 97.8 µM in data set [1], 38.1 µM at Glutamate racemase and above 400 µM in data set [2]. The same molecule displayed a solubility (kinetic) in data set [3] of 200 µM (≈ 69.9 µg/mL).
